# In patent publication US20180258180A1, “COMBINATION THERAPY INVOLVING ANTIBODIES AGAINST CLAUDIN 18.2 FOR TREATMENT OF CANCER” (Ganymed Pharmaceuticals AG, priority 2012, published 2018):
# How the values were obtained:
# KatoIII cells [1] = assay: Cell cycle analysis of KatoIII cells treated with cytostatic compounds; type: cell-based, human; settings: for cell cycle phase in which cells are predominantly arrested/enriched: KatoIII cells, 96 hours; for cell cycle arrest phase: KatoIII cells pretreated for 4 days
# Protocol: (§1) KatoIII cells, a human gastric tumor cell line, was cultivated in RPMI 1640 medium (Invitrogen) containing 20% FCS (Perbio) and 2 mM Glutamax (Invitrogen) at 37° C. and 5% CO2, with or without cytostatic compounds. Epirubicin (Pfizer) was tested at a concentration of 10 or 100 ng/ml, 5-FU (Neofluor from NeoCorp AG) was tested at a concentration of 10 or 100 ng/ml, and oxaliplatin (Hospira) was tested at a concentration of 50 or 500 ng/ml. A combination of all 3 compounds (EOF; epirubicin 10 ng/ml, oxaliplatin 500 ng/ml, 5-FU 10 ng/ml) was also used. 8×10^5 KatoIII cells were cultivated for 96 hours without medium change or for 72 hours followed by 24 hours cultivation in standard medium to release cells from cell cycle arrest in a 6-well tissue culture plate at 37° C., 5% CO2. Cells were harvested with EDTA/trypsin, washed and analysed.
# Cell cycle stages were determined based on measurement of cellular DNA content. This allows one to discriminate between cells in the G1-, S- or G2-phase of the cell cycle. In the S-phase DNA duplication occurs whereas in the G2-phase cells grow and prepare for mitosis. Cell cycle analysis was done using the CycleTEST PLUS DNA Reagent Kit from BD Biosciences following the manufacturer's protocol. Flow cytometry acquisition and analysis were performed by using BD FACS CantoII (BD Biosciences) and FlowJo (Tree Star) software.
# (§2) KatoIII cells were pretreated for 4 days with Irinotecan or Docetaxel and analysed for CLDN18.2 expression and cell cycle arrest.
# CLDN18.2 = assay: Extracellular detection of CLDN18.2 on treated KatoIII cells by flow cytometry; type: cell-based, human; settings: 96 hours, FIG. 1
# Protocol: as §1
# As secondary reagent goat-anti-huIgG-APC from Dianova was used.
# claudin18.2 = claudin18.2 expression in pretreated KatoIII cells; type: cell-based, human; settings: KatoIII pretreated for 3 days; Irinotecan 1000 ng/ml, Docetaxel 5 ng/ml, Cisplatin 2000 ng/ml
# KatoIII cells [2] = assay: IMAB362 induced ADCC / viability of pretreated KatoIII cells (luciferase); type: cell-based, human; settings: KatoIII pretreated for 3 days; for level of viable cells compared to medium cultivated target cells: Irinotecan 1000 ng/ml, Docetaxel 5 ng/ml, Cisplatin 2000 ng/ml
# Protocol: Peripheral blood mononuclear cells (PBMCs) including NK cells, monocytes, mononuclear cells or other effector cells from healthy human donors were purified by Ficoll Hypaque density centrifugation. Washed effector cells were seeded in X-Vivo medium. KatoII cells which express CLDN18.2 endogenously and are of gastric origin were used as target cells in this setting. Target cells stably expressed luciferase, lucifer yellow, which is oxidized by viable cells only.
# KatoIII cells [3] = assay: Cell growth of KatoIII cells pretreated with Irinotecan or Docetaxel; type: cell-based, human; settings: KatoIII cells pretreated for 4 days
# From the text: as §2
# Vγ9Vδ2 T cells = assay: Enrichment of Vγ9Vδ2 T cells co-cultured with monocytes ± ZA; type: cell-based, human; settings: co-culture 14 days, ±1 μM ZA
# Protocol: The enrichment of Vγ9Vδ2 T cells in the co-cultures after 14 days was determined by multicolor FACS, whereas the expansion of the culture was considered in the calculation. The enrichment factor of Vγ9Vδ2 T cells cultured with monocytes in a 1:4 ratio was set to 100% for each experiment. […] This effect was clearly ZA-dependent; cf. FIG. 11a.
# PBMCs = assay: Expansion of PBMC cultures with ZA/IL-2; type: cell-based, human; settings: 14 days, 300 U/ml IL-2
# Protocol: PBMCs were harvested from healthy human donors and cultures were treated with a single dose of ZA. […] FIG. 8a. […] FIG. 8b. Increase in cell numbers was determined by counting living cells on day 6, 8, 11 and 14.
# CLS103 = test system: CLS103
# Protocol: (§3) Furthermore, human stomach cancer cells (NUGC-4-luciferase) and murine stomach cancer cells (CLS103-calcein stained) were pretreated with or w/o 5 μM ZA for 2 days. Human Vγ9Vδ2 T cells were MACS purified (day 14) and co-cultured with the cancer cells for 24 h. Cytotoxicity of Vγ9V52 T cells towards non-treated and ZA-treated target cells was determined by measuring remaining luciferase activity or calcein fluorescence; cf. FIG. 11b. Target cells (NUGC-4 and CLS103) were pretreated with or w/o 5 μM ZA for 2 days and subsequently incubated for 4 h with mitomycin c ([…]) to stop proliferation. MACS purified human 14d old resting Vγ9V62 T cells and ^3H-thymidine were added to the target cells and co-cultures were incubated for 48 h at 37° C. Proliferation was determined by measuring ^3H thymidine incorporation in the DNA using a MicroBeta scintillation counter. Proliferation of target cells not treated with ZA and w/o Vγ9Vδ2 T cells was set to 100%; cf. FIG. 11c.
# NUGC-4 = type: cell-based, human
# Protocol: as §3
# [4] = target: Claudin 18 splice variant 2 (CLDN18.2), human (human)
# [5] = test system: HEK293~CLDN18.2 transfectants; assay: Early treatment of HEK293~CLDN18.2 tumor xenografts; type: in vivo, nude mice; settings: isotype control, twice per week for 6 weeks
# From the text: Moreover, advanced tumor treatment experiments were initiated up to 9 days after tumor cell inoculation when tumors had reached volumes of about 60-120 mm^3.
# Nude mice were subcutaneously inoculated with 1×10^7 HEK293˜CLDN18.2 transfectants. Treatment of 10 mice per group started 3 days after tumor inoculation. […] Not only time to death was prolonged, but 4 of 10 mice survived the entire observation period of 210 days.
# NUGC-4 xenografts = assay: Biodistribution of Dyelight 680-labeled antibodies in NUGC-4 xenografted nude mice; settings: negative control, NUGC-4 negative for CD20
compound,measurement,setting,value
"O=c1[nH]cc(F)c(=O)[nH]1 [5-FU, 5-fluoro-1H-pyrimidine-2,4-dione]",cell cycle phase in which cells are predominantly arrested/enriched,KatoIII cells [1],S-phase
same,CLDN18.2-expression,CLDN18.2,stabilize
"N.N.[Cl][Pt][Cl] [Cisplatin, cis-diamminedichloroplatinum(II)]",claudin18.2 expression compared to medium cultivated cells,claudin18.2,increased
same,potency of IMAB362 to induce ADCC after pretreatment of target cells,KatoIII cells [2],augmented
same,level of viable cells compared to medium cultivated target cells,KatoIII cells [2],lower level of viable cells
"CC(=O)O[C@@]12CO[C@@H]1C[C@H](O)[C@@]1(C)C(=O)[C@H](O)C3=C(C)[C@@H](OC(=O)[C@H](O)[C@@H](NC(=O)OC(C)(C)C)c4ccccc4)C[C@@](O)([C@@H](OC(=O)c4ccccc4)[C@H]21)C3(C)C [Docetaxel, docetaxel]",claudin18.2 expression compared to medium cultivated cells,claudin18.2,increased
same,cell cycle arrest phase,KatoIII cells [1],G2-phase
same,cell growth,KatoIII cells [3],dose dependent inhibition
same,potency of IMAB362 to induce ADCC after pretreatment of target cells,KatoIII cells [2],augmented
same,level of viable cells compared to medium cultivated target cells,KatoIII cells [2],lower level of viable cells
COc1cccc2c1C(=O)c1c(O)c3c(c(O)c1C2=O)C[C@@](O)(C(=O)CO)C[C@@H]3O[C@H]1C[C@H](N)[C@@H](O)[C@H](C)O1 [Epirubicin],cell cycle phase in which cells are predominantly arrested/enriched,KatoIII cells [1],G2-phase
same,CLDN18.2-expression,CLDN18.2,stabilize
"CCc1c2c(nc3ccc(OC(=O)N4CCC(N5CCCCC5)CC4)cc13)-c1cc3c(c(=O)n1C2)COC(=O)[C@]3(O)CC [Irinotecan, (S)-4,11-diethyl-3,4,12,14-tetrahydro-4-hydroxy-3,14-dioxo1H-pyrano[3′,4′:6,7]-indolizino[1,2-b]quinolin-9-yl-[1,4′bipiperidine]-1′-carboxylate]",claudin18.2 expression compared to medium cultivated cells,claudin18.2,increased
same,cell cycle arrest phase,KatoIII cells [1],S/G2-phase
same,cell growth,KatoIII cells [3],dose dependent inhibition
same,potency of IMAB362 to induce ADCC after pretreatment of target cells,KatoIII cells [2],augmented
same,level of viable cells compared to medium cultivated target cells,KatoIII cells [2],lower level of viable cells
"O=C1[O][Pt]2([NH][C@@H]3CCCC[C@H]3[NH]2)[O]C1=O [Oxaliplatin, [(1R,2R)-cyclohexane-1,2-diamine](ethanedioato-O,O′)platinum(II)]",cell cycle phase in which cells are predominantly arrested/enriched,KatoIII cells [1],G1- and G2-phases
"O=P(O)(O)C(O)(Cn1ccnc1)P(=O)(O)O [ZA, [1-hydroxy-2-(1H-imidazol-1-yl)ethane-1,1-diyl]bis(phosphonic acid)]","enrichment of Vγ9Vδ2 T cells with increase of monocytes, ZA-dependent",Vγ9Vδ2 T cells,more than 10 fold
same,expansion of cells in medium without ZA compared to with ZA (lower),PBMCs,about 2 fold
same,activation of Vγ9Vδ2 T cells (cytotoxicity and proliferation) by ZA-pulsed cancer cells,CLS103,failed to elicit these effects
same,activation of Vγ9Vδ2 T cell cytotoxicity by ZA-pulsed cancer cells,NUGC-4,5-10 fold
same,activation of Vγ9Vδ2 T cell proliferation by ZA-pulsed cancer cells,"NUGC-4; 5 μM ZA for 2 days, co-culture 48 h, 3H-thymidine",1.4-1.8 fold
IMAB362 (antibody),"EC50 (read off the curve), ADCC on KatoIII cells pretreated 3 days with Irinotecan (Irino imab362)",[4],1 µg/mL
same,"EC50 (read off the curve), ADCC on medium-cultivated KatoIII cells (Med imab362)",[4],2 µg/mL
infliximab: isotype control antibody [reference compound],time within which all mice died,[5],70 to 80 days
rituximab: Dyelight 680-labeled negative control antibody (NUGC-4 negative for CD20) [reference compound],signal of labeled antibody in NUGC-4 engrafted mice,NUGC-4 xenografts,No signal is detected
